From ChEMBL document CHEMBL1649565, “Besifloxacin, a novel fluoroquinolone, has broad-spectrum in vitro activity against aerobic and anaerobic bacteria” (Antimicrob Agents Chemother, 2009)
In brackets after ≈: the same amount, converted by molar mass. Activity calls are given as the source filed them. No cut-off for these calls is given here.

Columns and labels:
Format in all cases: functional
Listeria monocytogenes [1] = assay: Antibacterial activity against Listeria monocytogenes by CLSI M100-S18 method
[2] = Antibacterial activity against Lancefield Streptococcus sp. 'group C' by CLSI M100-S18 method
Streptococcus sp. = assay: Antibacterial activity against Lancefield Streptococcus sp. group F by CLSI M100-S18 method
[3] = Antibacterial activity against Lancefield Streptococcus sp. 'group G' by CLSI M100-S18 method
Streptococcus pneumoniae [4] = assay: Antibacterial activity against levofloxacin-susceptible Streptococcus pneumoniae by CLSI M100-S18 method
Streptococcus pneumoniae [5] = assay: Antibacterial activity against non-levofloxacin susceptible Streptococcus pneumoniae by CLSI M100-S18 method
Streptococcus pyogenes = assay: Antibacterial activity against Streptococcus pyogenes by CLSI M100-S18 method
Streptococcus anginosus [6] = assay: Antibacterial activity against Streptococcus anginosus by CLSI M100-S18 method
Streptococcus equinus [7] = assay: Antibacterial activity against Streptococcus bovis by CLSI M100-S18 method
[8] = system: Streptococcus constellatus; assay: Antibacterial activity against Streptococcus constellatus by CLSI M100-S18 method
[9] = system: Streptococcus intermedius; assay: Antibacterial activity against Streptococcus intermedius by CLSI M100-S18 method
Streptococcus mitis [10] = assay: Antibacterial activity against Streptococcus mitis by CLSI M100-S18 method
Streptococcus oralis [11] = assay: Antibacterial activity against Streptococcus oralis by CLSI M100-S18 method
Streptococcus salivarius [12] = assay: Antibacterial activity against Streptococcus salivarius by CLSI M100-S18 method
Streptococcus sanguinis [13] = assay: Antibacterial activity against Streptococcus sanguinis by CLSI M100-S18 method
Haemophilus influenzae [14] = assay: Antibacterial activity against ciprofloxacin-susceptible Haemophilus influenzae by CLSI M7-A7 method
Haemophilus influenzae [15] = assay: Antibacterial activity against non-ciprofloxacin-susceptible Haemophilus influenzae by CLSI M7-A7 method
Neisseria meningitidis [16] = assay: Antibacterial activity against Neisseria meningitidis by CLSI M7-A7 method
Listeria monocytogenes [17] = assay: Antibacterial activity against Listeria monocytogenes assessed as percent susceptible isolates by CLSI M100-S18 method
Streptococcus pneumoniae [18] = assay: Antibacterial activity against levofloxacin susceptible Streptococcus pneumoniae assessed as percent susceptible isolates by CLSI M100-S18 method
Streptococcus pneumoniae [19] = assay: Antibacterial activity against non-levofloxacin susceptible Streptococcus pneumoniae assessed as percent susceptible isolates by CLSI M100-S18 method
Streptococcus anginosus [20] = assay: Antibacterial activity against Streptococcus anginosus assessed as percent susceptible isolates by CLSI M100-S18 method
Streptococcus equinus [21] = assay: Antibacterial activity against Streptococcus bovis assessed as percent susceptible isolates by CLSI M100-S18 method
[22] = system: Streptococcus constellatus; assay: Antibacterial activity against Streptococcus constellatus assessed as percent susceptible isolates by CLSI M100-S18 method
[23] = system: Streptococcus intermedius; assay: Antibacterial activity against Streptococcus intermedius assessed as percent susceptible isolates by CLSI M100-S18 method
Streptococcus mitis [24] = assay: Antibacterial activity against Streptococcus mitis assessed as percent susceptible isolates by CLSI M100-S18 method
Streptococcus oralis [25] = assay: Antibacterial activity against Streptococcus oralis assessed as percent susceptible isolates by CLSI M100-S18 method
Streptococcus salivarius [26] = assay: Antibacterial activity against Streptococcus salivarius assessed as percent susceptible isolates by CLSI M100-S18 method
Streptococcus sanguinis [27] = assay: Antibacterial activity against Streptococcus sanguinis assessed as percent susceptible isolates by CLSI M100-S18 method
Haemophilus influenzae [28] = assay: Antibacterial activity against ciprofloxacin-susceptible Haemophilus influenzae assessed as percent susceptible isolates by CLSI M7-A7 method
Haemophilus influenzae [29] = assay: Antibacterial activity against non-ciprofloxacin-susceptible Haemophilus influenzae assessed as percent susceptible isolates by CLSI M7-A7 method
Neisseria meningitidis [30] = assay: Antibacterial activity against Neisseria meningitidis assessed as percent susceptible isolates by CLSI M7-A7 method
Enterococcus faecalis [31] = assay: Antibacterial activity against vancomycin- resistant Enterococcus faecalis by CLSI M100-S18 method
Enterococcus faecium [32] = assay: Antibacterial activity against vancomycin- resistant Enterococcus faecium by CLSI M100-S18 method
Enterococcus faecalis [33] = assay: Antibacterial activity against vancomycin- resistant Enterococcus faecalis assessed as percent susceptible isolates by CLSI M100-S18 method
Enterococcus faecium [34] = assay: Antibacterial activity against vancomycin- resistant Enterococcus faecium assessed as percent susceptible isolates by CLSI M100-S18 method

CC1(C)S[C@@H]2[C@H](NC(=O)Cc3ccccc3)C(=O)N2[C@H]1C(=O)O [PENICILLIN G]
MIC50 (Listeria monocytogenes [1]): 0.25 µg/mL (≈ 0.748 µM)
MIC90 (Listeria monocytogenes [1]): 0.25 µg/mL (≈ 0.748 µM)
MIC50 [2]: 8 µg/mL (≈ 23.9 µM)
MIC90 [2]: 16 µg/mL (≈ 47.8 µM)
MIC50 (Streptococcus sp.): 8 µg/mL (≈ 23.9 µM)
MIC90 (Streptococcus sp.): 16 µg/mL (≈ 47.8 µM)
MIC50 [3]: 8 µg/mL (≈ 23.9 µM)
MIC90 [3]: 16 µg/mL (≈ 47.8 µM)
MIC (Streptococcus pneumoniae [4]): ≤ 0.06 µg/mL
MIC50 (Streptococcus pneumoniae [4]): ≤ 0.06 µg/mL
MIC90 (Streptococcus pneumoniae [4]): 0.5 µg/mL (≈ 1.5 µM)
MIC50 (Streptococcus pneumoniae [5]): 0.12 µg/mL (≈ 0.359 µM)
MIC90 (Streptococcus pneumoniae [5]): 2 µg/mL (≈ 5.98 µM)
MIC (Streptococcus pyogenes): ≤ 0.015 µg/mL
MIC50 (Streptococcus pyogenes): ≤ 0.015 µg/mL
MIC90 (Streptococcus pyogenes): ≤ 0.015 µg/mL
MIC50 (Streptococcus anginosus [6]): 0.06 µg/mL (≈ 0.179 µM)
MIC90 (Streptococcus anginosus [6]): 1 µg/mL (≈ 2.99 µM)
MIC50 (Streptococcus equinus [7]): 16 µg/mL (≈ 47.8 µM)
MIC90 (Streptococcus equinus [7]): 32 µg/mL (≈ 95.7 µM)
MIC50 [8]: 16 µg/mL (≈ 47.8 µM)
MIC90 [8]: 32 µg/mL (≈ 95.7 µM)
MIC50 [9]: 16 µg/mL (≈ 47.8 µM)
MIC90 [9]: 32 µg/mL (≈ 95.7 µM)
MIC50 (Streptococcus mitis [10]): 16 µg/mL (≈ 47.8 µM)
MIC90 (Streptococcus mitis [10]): 32 µg/mL (≈ 95.7 µM)
MIC50 (Streptococcus oralis [11]): 16 µg/mL (≈ 47.8 µM)
MIC90 (Streptococcus oralis [11]): 32 µg/mL (≈ 95.7 µM)
MIC50 (Streptococcus salivarius [12]): 16 µg/mL (≈ 47.8 µM)
MIC90 (Streptococcus salivarius [12]): 32 µg/mL (≈ 95.7 µM)
MIC50 (Streptococcus sanguinis [13]): 16 µg/mL (≈ 47.8 µM)
MIC90 (Streptococcus sanguinis [13]): 32 µg/mL (≈ 95.7 µM)
MIC50 (Haemophilus influenzae [14]): 0.5 µg/mL (≈ 1.5 µM)
MIC90 (Haemophilus influenzae [14]): > 4 µg/mL
MIC50 (Haemophilus influenzae [15]): 1 µg/mL (≈ 2.99 µM)
MIC90 (Haemophilus influenzae [15]): 2 µg/mL (≈ 5.98 µM)
MIC (Neisseria meningitidis [16]): ≤ 0.06 µg/mL
MIC50 (Neisseria meningitidis [16]): ≤ 0.06 µg/mL
MIC90 (Neisseria meningitidis [16]): 0.12 µg/mL (≈ 0.359 µM)
Activity (Listeria monocytogenes [17]): 100%
Activity (Streptococcus pneumoniae [18]): 100%
Activity (Streptococcus pneumoniae [19]): 100%
Activity (Streptococcus anginosus [20]): 53.2%
Activity (Streptococcus equinus [21]): 53.2%
Activity [22]: 53.2%
Activity [23]: 53.2%
Activity (Streptococcus mitis [24]): 53.2%
Activity (Streptococcus oralis [25]): 53.2%
Activity (Streptococcus salivarius [26]): 53.2%
Activity (Streptococcus sanguinis [27]): 53.2%
Activity (Haemophilus influenzae [28]): inactive
Activity (Haemophilus influenzae [29]): inactive
Activity (Neisseria meningitidis [30]): 50%

CN[C@H](CC(C)C)C(=O)N[C@H]1C(=O)N[C@@H](CC(N)=O)C(=O)N[C@H]2C(=O)N[C@H]3C(=O)N[C@H](C(=O)N[C@H](C(=O)O)c4cc(O)cc(O)c4-c4cc3ccc4O)[C@H](O)c3ccc(c(Cl)c3)Oc3cc2cc(c3O[C@@H]2O[C@H](CO)[C@@H](O)[C@H](O)[C@H]2O[C@H]2C[C@](C)(N)[C@H](O)[C@H](C)O2)Oc2ccc(cc2Cl)[C@H]1O [VANCOMYCIN]
MIC50 (Enterococcus faecalis [31]): 1 µg/mL (≈ 0.69 µM)
MIC90 (Enterococcus faecalis [31]): > 32 µg/mL
MIC (Enterococcus faecium [32]): ≤ 0.5 µg/mL
MIC50 (Enterococcus faecium [32]): ≤ 0.5 µg/mL
MIC90 (Enterococcus faecium [32]): > 32 µg/mL
Activity (Enterococcus faecalis [33]): 80%
Activity (Enterococcus faecium [34]): 87.3%
